The record followed here is patent US11872230B2, “Method of treating a methionine-dependent cancer” (Agency for Science, Technology and Research, priority 2018, dated 2024).

“Also recorded” adds a separate entry of the source. Where a SMILES comes first, the peptide text is derived from it. The star is where a group is joined. Cbz = O=C(OCc1ccccc1)*

Assay [1] relates to TS cells (lung TICs). The assay is described as follows: Intraperitoneal administration to NSG mice subcutaneously implanted with lung TICs. The following applies: cisplatin 4 mg/kg i.p., three days, 6 weeks. It is filed as in vivo. From the text: (§1) 5×10^5 single cells were mixed in a 1:1 mixture of serum free DMEM/F12 and Matrigel (BD) and injected subcutaneously into the flanks of 4-6 week old male and female NOD.Cg-Prkdc^scid Il2rg^tm1wjl SzJ (Jackson Laboratories). About 6 weeks later, or when tumor sizes exceed 2 cm in length, mice were sacrificed and tumors harvested for analysis. All animal experiments were approved by the Agency for Science Technology and Research Singapore—Biological Resource Centre. Mice were randomized by sex.
Since FIDAS5 appeared to more specifically disrupt the methionine cycle and inhibit cellular methylation activities compared to D9, it was sought to test whether its systemic delivery could impact the tumorigenic potential of TS cells. These highly tumorigenic cells were first subcutaneously implanted into NSG mice and FIDAS5 (40 mg/kg) or corn oil carrier was immediately administered via intraperitoneal injection for three consecutive days. After 6 weeks, mice transiently treated with FIDAS5 produced tumors that were much smaller than carrier-treated controls. […] To exclude the possibility of general cytotoxicity associated with the inhibitor on TS cells, TS cell-implanted NSG mice were treated with cisplatin (4 mg/kg), a frontline chemotherapeutic agent that broadly target bulk cancer cells in NSCLC tumors, in the same manner (FIG. 5i). […]

Assay [2] concerns histone methylation in TS cells. The experiment in a line: Western blot of methylated histones in TS cells. It is filed as cell-based, human. The procedure: (§2) 1.5×10^6 cells were lysed in Llaemli-SDS buffer and then sonicated. Total protein concentration was measured by Bradford assay. Total cell lysates were separated by SDS-PAGE and transferred onto nitrocellulose, followed by blocking in 5% (v/v) milk in Tris-buffered saline in Tween 20, probing with the indicated antibodies and visualized by chemiluminescence (Roche). Primary antibodies used were anti-β-Actin (sc-47778), anti-GAPDH (sc-32233) from Santa Cruz: anti-GLDC (ab97625), anti-H3 (ab1791), anti-H3 (dimethylK36) (ab9049), anti-MAT2A (ab77471), anti-MTR (ab9209), anti-H3 (trimethylK79) (ab2621), anti-MTHFR (ab125707), anti-MTAP (ab ab55517) from Abcam; anti-H3(trimethyl K4) (39159), anti-H3(trimethyl K27)(39155), anti-H3(trimethylK36)(61101) and anti-H3(trimethylK9)(39765) from Active Motif; anti-β-catenin (BD610154) from BD Biosciences; anti-SHMT2 (HPA020549) and anti-SAHH (WH0000191M8) from Sigma; anti-Symmetric Di-Methyl Arginine Motif (13222) from CST.
(§3) To evaluate the methionine cycle as a therapeutic target in lung TICs, small molecule inhibitors that target enzymes within this pathway were employed, mimicking the effects of short-term methionine starvation (FIG. 5a). two inhibitors known to perturb methionine cycle activity and cellular methylation levels: 1) MAT2A inhibitor, FIDAS5; and 2) SAHH inhibitor, D9, which is an analog of DZNep. In a manner similar to amino acid starvation studies, TS cells were exposed transiently to the compounds for 48 h in culture and were immediately used for downstream tumorigenesis assays.

The subject of assay [3] is methylated histones in TS cells. The experiment in a line: Protein turnover experiment (cycloheximide) of methylated histones in TS cells. The assay is classed as cell-based, human. The following applies: MG132 10 μM with 20 μg/ml cycloheximide. On the procedure:
as §2
5×10^5 cells were treated with 20 μg/ml of cycloheximide (Sigma) and harvested for immunoblotting at indicated time points thereafter.

The subject of assay [4] is histone methylation in GLDC KD cells. The assay is described as follows: Western blot of methylated histones in GLDC KD cells with metabolite supplementation. It is filed as cell-based, human. The following applies: SAM 500 μM 48 h, formate 0.5 mM, methyl-THF 20 μM or adenosine 200 μM. The procedure: (§4) 1.5×10^6 cells were lysed in Llaemli-SDS buffer and then sonicated. Total protein concentration was measured by Bradford assay. Total cell lysates were separated by SDS-PAGE and transferred onto nitrocellulose, followed by blocking in 5% (v/v) milk in Tris-buffered saline in Tween 20, probing with the indicated antibodies and visualized by chemiluminescence (Roche).
Background: A western blot detects proteins with antibodies after separation by electrophoresis.

For assay [5], the system named is TS cells (lung TICs). The assay is described as follows: Tumor formation in NSG mice after transplantation of pre-treated TS cells. It is filed as in vivo.
Excerpt: as §1, §3

The subject of another assay is GLDC KD cells. The experiment in a line: Tumor mass in NSG mice after transplantation of SAM supplemented GLDC KD cells. The following applies: GLDC KD cells supplemented with SAM for 48 hours before xenografting. It is filed as in vivo.
Excerpt: as §1

The subject of assay [6] is MTHFR abundance in GLDC KD cells. The assay is described as follows: Western blot of MTHFR in SAM supplemented GLDC KD cells. It is filed as cell-based, human. The procedure: as §2
Assay [7] relates to TS cells (lung TICs). The assay is described as follows: Soft agar colony formation of pre-treated TS cells. It is filed as cell-based, human. On the procedure: 2.5 ml lower layer of 0.7% agar in complete DMEM/F12 with 10% fetal bovine serum was placed in 3 wells of a 6 well dish, and permitted to solidify. 2×10^4 Cells (for 3 wells) were then suspended in a 2 ml layer of 0.35% agar in complete DMEM/F12 with 10% fetal bovine serum and layered on top of the bottom layer. Colonies were stained with crystal violet and counted after approximately 2 months.
as §3

Assay [8] deals with ATP levels in knockdown TS cells. The experiment in a line: Steady-state ATP levels (CellTiter-Glo) in GLDC/SHMT2 knockdown TS cells. The assay is classed as cell-based, human. The following applies: GLDC (or SHMT2) knockdown cells; formate 0.5 mM or adenosine 200 μM. The procedure:
(§5) Cells were seeded into 96-well plates at a density of 1,000 cells/well at 10 replicate wells per condition. Cells were then left to equilibrate at 37° C. for 3 h. ATP was then quantified using the CellTiter-GLo reagent (Promega). 5 biological replicates were used.

Assay [9] concerns histone methylation in MTHFR overexpressing+GLDC KD cells. The assay is described as follows: Western blot of methylated histones in MTHFR overexpressing+GLDC KD cells. The assay is classed as cell-based, human. The following applies: formate 0.5 mM. The procedure:
as §4

Another assay has as its system ATP levels in Adh cells. The experiment in a line: Steady-state ATP levels (CellTiter-Glo) in Adh cells. The following applies: formate 0.5 mM. It is filed as cell-based, human. On the procedure:
as §5
(In general: In ATP-based viability assays light output follows the ATP content of the culture.)

The mark [10] stands for this setting: methionine-starved TS cells (48 h) supplemented with SAM 500 μM or homocysteine 250 μM.
Where [11] appears, read: TS cells, 500 μM SAM in the presence of FIDAS5.

Consider `N.N.[Cl][Pt][Cl]` [Cisplatin, cis-Diammineplatinum(II) dichloride], for which the tumor growth entry in the assay with TS cells (lung TICs) [1] was “unable to halt tumor growth”.
As for `N[C@@H](CCS)C(=O)O` [Homocysteine, homocysteine], the histone methylation entry in [2] (setting [10]) is “failed to rescue”.
Take `CC(C)C[C@@H](C=O)NC(=O)[C@H](CC(C)C)NC(=O)[C@H](CC(C)C)NC(=O)OCc1ccccc1` [MG132] (Cbz-Leu-Leu-Leu-aldehyde): in [3], the “high turnover of methylated histones” value is given as “rescued”.
Consider `C[S+](CC[C@H](N)C(=O)O)C[C@H]1O[C@@H](n2cnc3c(N)ncnc32)[C@H](O)[C@@H]1O` (stereo partly drawn) [SAM, S-adenosyl methionine], for which the histone methylation result in [2] (setting [11]) is “rescued, to a large extent”; in assay [2] (setting [10]), “restored”; in assay [4], “reestablishment of histone methylation”. The tumor-formation capability entry in the assay on TS cells (lung TICs) [5] (TS cells, 500 μM SAM in the presence of FIDAS5, transplanted into NSG mice) is recorded as “rescued, to a large extent”. For the same compound, in the assay with TS cells (lung TICs) [5] (methionine starvation conditions, SAM 500 μM supplemented, NSG mice), the tumor-forming capability entry is listed as “rescued”. Moreover, the tumorigenic potential result in the assay on GLDC KD cells is “incomplete rescue”. In assay [6], the MTHFR abundance entry was “recovery of MTHFR abundance”. In the assay on TS cells (lung TICs) [7] (setting [11]), the colony-formation capability entry is listed as “rescued, to a large extent”. Moreover, the colony-forming capability result with TS cells (lung TICs) [7] (methionine starvation conditions, SAM 500 μM supplemented) is “rescued”.
In the case of `Nc1ncnc2c1ncn2[C@@H]1O[C@H](CO)[C@@H](O)[C@H]1O` [adenosine, Adenosine], in assay [4], the histone methylation result is recorded as “did not rescue”. Further, the “steady state ATP levels” value in [8] is on record as “rescued ATP levels”.
With `O=C[O-].[Na+]` [formate, Sodium formate], the histone methylation entry is “did not rescue” in assay [4] and “fully rescued” in [9]. Besides, in assay [8], the “steady state ATP levels” value was “could be rescued; also recorded: rescued ATP levels”. In the assay with ATP levels in Adh cells, the ATP levels result is on record as “could not rescue”.
